Several values for one entry are separate records, joined by “and”; a condition that tells them apart may be missing. Identical values can stand only once.
Tests used:
CDK2/cyclin A2 = biological target: T1, CDK2/cyclin A2 (Homo sapiens, UniProt P24941); assay: In vitro CDK2/cyclin A2 enzyme inhibition assay (ADP-Glo); format: biochemical; conditions: for percentage enzyme activity: at 50 μM; for Relative activity: supplement S1, DMSO = 100, screen at 50 μM; for IC50: n = 3, read-out: IC50 against CDK2/cyclin A2
T1 construct: purchased Promega
Experimental: The studied pyrazoles 2a–g, 4, 7a–d, 8a and b, 9, and 10 were assessed for their in vitro CDK2/cyclin A2 enzyme inhibition assay at a concentration of 50 μM using the Promega CDK2/cyclinA2 kinase enzyme system coupled with the ADP-Glo assay.[32,33] The percentage enzyme activity was the lowest for five compounds, namely 4, 7a, 7d, 8a, and 9 with values of 24.7%, 17.5%, 11.5%, 27.1% and 14.5%, respectively.
The in vitro assay of CDK2/cyclin A2 protein kinase was carried out on all the synthesized compounds. The kinase assay was performed in a 96-well white plate with a reaction volume of […]. The reaction was performed in four steps as follows: 2.5 μL of the test compounds or 5% DMSO and 5 μL of CDK2/cyclin A2 enzyme (1.6 ng) was added, and then incubated at room temperature for 30 min. Then, 5 μL of 50 μM ATP. 0.1 μg μL^−1 histone H1 was added and incubated for 10 min. The reaction was stopped by adding 12.5 μL of ADP-Glo™ Reagent and incubated for 40 min. Then 25 μL of kinase detection reagent was added to each well and incubated for 60 min before detection with luminescence (Integration time 0.5–1 s).[25,32,33]

MCF7 = assay: NCI 60 single dose screen, Breast cancer; format: cell-based, human; conditions: single dose 10 μM
Experimental: (§1) The newly synthesized pyrazoles 2a–g, 7a–d, 8a and b, 9, and 10 were submitted to the National Cancer Institute (NCI) Developmental Therapeutics Program (http://www.dtp.nci.nih.gov) for assessment of their potential antiproliferative activity against a panel of NCI 60 cancer cell lines. All compounds were approved for screening against the approved 60 cancer cell lines at a single dose of 10 μM. The human cancer cell lines were derived from 9 variant cancer types including leukemia, melanoma, lung, colon, CNS, ovarian, renal, prostate and breast cancers. The results are presented as percentage of growth inhibition (GI%) of the screened compounds against the full panel of cell lines.
(§2) Under sterile conditions, the cell lines were grown in RPMI 1640 media (Gibco, NY, USA) supplemented with 10% fetal bovine serum (Biocell, CA, USA), and […] cell/mL was used to test the growth inhibition activity of the synthesized compounds. The compounds with concentrations ranging from 0.01 to 100 μM were prepared in phosphate buffer saline. Each compound was initially solubilized in dimethyl sulfoxide (DMSO); however, each final dilution contained less than 1% DMSO. Solutions of different concentrations (0.2 mL) were pipetted into the separate well of a microtiter tray in duplicate. Cell culture (1.8 mL) containing a cell population of […] cells per mL was pipetted into each well. Controls, containing only phosphate buffer saline and DMSO at identical dilutions, were also prepared in the same manner. These cultures were incubated in a humidified incubator at 37 °C. The incubator was supplied with 5% CO2 atmosphere. After 48 h, the cells in each well were diluted 10 times with saline and counted using a Coulter counter. The counts were corrected for the dilution.[34]

[1] = system: CDK 1, 2, 4, 6 and 9 isoforms; parameters: method as in PMID 18656911; conditions: range over CDK 1, 2, 4, 6 and 9 isoforms; cited from earlier work
CDK2 [2] = conditions: cited from earlier work; for IC50: CDK2
MDA-MB-468 = assay: NCI 60 single dose screen, Breast cancer; format: cell-based, human; conditions: single dose 10 μM
Experimental: as §1, §2

NCI 60 cancer cell lines = assay: NCI 60 single dose screen, mean over full panel; format: cell-based, human; conditions: mean over NCI 60 cell lines; single dose 10 μM
Experimental: as §1, §2

CCRF-CEM = assay: NCI 60 single dose screen, Leukemia; format: cell-based, human; conditions: single dose 10 μM
Experimental: as §1, §2

MALME-3M = assay: NCI 60 single dose screen, Melanoma; format: cell-based, human; conditions: single dose 10 μM
Experimental: as §1, §2

SK-MEL-2 = assay: NCI 60 single dose screen, Melanoma; format: cell-based, human; conditions: single dose 10 μM
Experimental: as §1, §2

T-47D = assay: NCI 60 single dose screen, Breast; format: cell-based, human; conditions: single dose 10 μM
Experimental: as §1
Under sterile conditions, the cell lines were grown in RPMI 1640 media (Gibco, NY, USA) supplemented with 10% fetal bovine serum (Biocell, CA, USA), and […] cell/mL was used to test the growth inhibition activity of the synthesized compounds. The compounds with concentrations ranging from 0.01 to 100 μM were prepared in phosphate buffer saline. Each compound was initially solubilized in dimethyl sulfoxide (DMSO); however, each final dilution contained less than 1% DMSO. Solutions of different concentrations (0.2 mL) were pipetted into the separate well of a microtiter tray in duplicate. […] After 48 h, the cells in each well were diluted 10 times with saline and counted using a Coulter counter. […]

HCT-116 cell line = assay: MTT cell viability assay; format: cell-based; conditions: Homo sapiens, read-out: IC50 (cytotoxicity, MTT)
CDK2 [3] = assay: Western blot of CDK2 expression in HCT-116 cells; format: cell-based; conditions: 1 μM, 48 h, vs vehicle treated cells
Text: The method of sodium dodecyl sulfate polyacrylamide gel electrophoresis (SDS-PAGE) is employed to separate proteins based on their size. When combined with western blotting (immunoblotting), both techniques are commonly used to identify the presence and/or relative abundance of a specific protein within a sample containing a complex mixture of proteins.[36] In this process, each sample's total protein content is loaded onto a gel and separated by electrophoresis, allowing proteins to migrate through the gel matrix under the influence of an electric current. To facilitate protein migration, the proteins are initially denatured and given a negative charge by exposure to a detergent like SDS. A molecular weight marker with known-sized bands assists in identifying proteins of interest. […] Typically, the secondary antibody is linked to an enzyme that generates luminescence upon reacting with its substrate. The intensity of the luminescence, directly correlating with the amount of protein that interacted with the antibody, is captured by a Bio-Rad Imager.[36] […]
HCT-116 cells were treated with either 3 μM of compound 4 and 1 μM of compound 9 and incubated 48 h. The cells were lysed by 1× RIPA buffer containing protease and phosphatase inhibitors to quantify the protein concentration by BCA protein assay. […]

in vitro = conditions: human

Molecule	Relative activity (CDK2/cyclin A2)	melting point [°C]	also measured
Nc1n[nH]c(N)c1/N=N/c1ccc(O)cc1 [CAN508 (III)]			IC50 (CDK2 [2]): 350 nM
O=C1NN=C(Nc2ccccc2)C1=NNc1ccccc1 [Compound 2a, 5-(Phenylamino)-4-(2-phenylhydrazono)-2,4-dihydro-3H-pyrazol-3-one]	51.4	215 to 217	GI% (MCF7): 73.8%
O=C1NN=C(Nc2ccccc2)C1=NNc1ccc(F)cc1 [Compound 2b, 4-(2-(4-Fluorophenyl)hydrazono)-5-(phenylamino)-2,4-dihydro-3H-pyrazol-3-one]	55.6	239 to 240	GI% (MCF7): 86.1%; GI% (MDA-MB-468): 72.25%
O=C1NN=C(Nc2ccccc2)C1=NNc1ccc(Cl)cc1 [Compound 2c, 4-(2-(4-Chlorophenyl)hydrazono)-5-(phenylamino)-2,4-dihydro-3H-pyrazol-3-one]	59.3	249 to 251	GI% (MCF7): 77.1%
O=C1NN=C(Nc2ccccc2)C1=NNc1ccc(O)cc1 [Compound 2d, 4-(2-(4-Hydroxyphenyl)hydrazono)-5-(phenylamino)-2,4-dihydro-3H-pyrazol-3-one]	40.2	257 to 259	mean GI% (NCI 60 cancer cell lines): 27.12%
Cc1ccc(NN=C2C(=O)NN=C2Nc2ccccc2)cc1 [Compound 2e, 5-(Phenylamino)-4-(2-(p-tolyl)hydrazono)-2,4-dihydro-3H-pyrazol-3-one]	56.6	251 to 253	mean GI% (NCI 60 cancer cell lines): 6.87%
COc1ccc(NN=C2C(=O)NN=C2Nc2ccccc2)cc1 [Compound 2f, 4-(2-(4-Methoxyphenyl)hydrazono)-5-(phenylamino)-2,4-dihydro-3H-pyrazol-3-one]	62.1	240 to 242	mean GI% (NCI 60 cancer cell lines): 10.24%
CC(=O)c1ccc(NN=C2C(=O)NN=C2Nc2ccccc2)cc1 [Compound 2g, 4-(2-(4-Acetylphenyl)hydrazono)-5-(phenylamino)-2,4-dihydro-3H-pyrazol-3-one]	59.5	265 to 267	
N#Cc1c(Nc2ccccc2)n[nH]c1NCc1ccccc1 [Compound 9, 5-(benzylamino)-3-(phenylamino)-1H-pyrazole-4-carbonitrile]	14.5	136 to 137	percentage enzyme activity (CDK2/cyclin A2): 14.5%; IC50 (CDK2/cyclin A2): 960 nM; GI% (CCRF-CEM): 81.65%; GI% (MALME-3M): 78.10%; GI% (SK-MEL-2): 79.33%; GI% (T-47D): 82.76%; mean GI% (NCI 60 cancer cell lines): 65.90%; IC50 (HCT-116 cell line): 10000 nM; expression of CDK-2 (western blot) (CDK2 [3]): inhibitions in the expression of CDK-2; IC50 (in vitro): 56800 nM
CC(=O)N(C(C)=O)c1[nH]nc(Nc2ccccc2)c1C#N [Compound 10, N-acetyl-N-(4-cyano-3-(phenylamino)-1H-pyrazol-5-yl)acetamide]	49.9	173 to 175	
NC(=O)c1ccc(-c2ccc(F)c(C(=O)Nc3c[nH]nc3C(=O)Nc3ccc(F)cc3)c2F)cn1 [DC-K2in212 (IV)]			IC50 (CDK2 [2]): 295 nM; selectivity against CDK2 over CDK1 (CDK2 [2]): 17 fold

Second part, led by results:

Relative activity (CDK2/cyclin A2)	melting point [°C]	Molecule	also measured
56.4		4-Chloro-N-(4-cyano-3-(phenylamino)-1H-pyrazol-5-yl)benzamide [Compound 8a]	percentage enzyme activity (CDK2/cyclin A2): 27.1%
68.6		5-((4-Methoxybenzylidene)amino)-3-(phenylamino)-1H-pyrazole-4-carbonitrile [Compound 7c]	GI% (MCF7): 79.41%
42.3	265 to 267	N#Cc1c(Nc2ccccc2)n[nH]c1N=Cc1ccc(F)cc1 [Compound 7a, 5-((4-Fluorobenzylidene)amino)-3-(phenylamino)-1H-pyrazole-4-carbonitrile]	IC50 (CDK2/cyclin A2): 2000 nM and 2010 nM
70.7	273 to 275	N#Cc1c(Nc2ccccc2)n[nH]c1N=Cc1ccc(Cl)cc1 [Compound 7b, 5-((4-Chlorobenzylidene)amino)-3-(phenylamino)-1H-pyrazole-4-carbonitrile]	
11.5	284 to 285	CN(C)c1ccc(C=Nc2[nH]nc(Nc3ccccc3)c2C#N)cc1 [Compound 7d, 5-((4-(Dimethylamino)benzylidene)amino)-3-(phenylamino)-1H-pyrazole-4-carbonitrile]	percentage enzyme activity (CDK2/cyclin A2): 11.5%; IC50 (CDK2/cyclin A2): 1470 nM
27.1	233 to 235	COc1ccc(C(=O)Nc2[nH]nc(Nc3ccccc3)c2C#N)cc1 [Compound 8b, N-(4-Cyano-3-(phenylamino)-1H-pyrazol-5-yl)-4-methoxybenzamide]	IC50 (CDK2/cyclin A2): 18700 nM
